Results as given in ChEMBL document CHEMBL1201862, “PubChem BioAssay data set” (2004).
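Five compound concentrations were applied to cells in 96-well plates for 48 hours; endpoints were derived by simple linear interpolation of the resulting dose-response curve. The concentration for 50% growth inhibition is given as GI50.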 Activity calls are given as the source filed them. Rule as the data show it: active = GI50 up to about 1.1 µM and inactive = higher.

How the values were obtained:
Experiment in all cases: NCI anticancer screen, dose series, 48 h
[1] = system: 786-0
[2] = system: A549
[3] = system: CCRF-CEM
[4] = system: DU-145
[5] = system: HCC 2998
[6] = system: HT-29
[7] = system: Hs-578T
[8] = system: IGROV-1
[9] = system: MCF7
[10] = system: MDA-MB-231
[11] = system: Malme-3M
[12] = system: NCI-H522
[13] = system: OVCAR-3
[14] = system: OVCAR-5
[15] = system: PC-3
[16] = system: SF-295
[17] = system: SK-MEL-2
[18] = system: SNB-19
[19] = system: U-251
[20] = system: UACC-257

SMILES | GI50 [1] | GI50 [2] | GI50 [3] | GI50 [4] | GI50 [5] | GI50 [6] | GI50 [7] | GI50 [8] | GI50 [9] | GI50 [10] | GI50 [11] | GI50 [12] | GI50 [13] | GI50 [14] | GI50 [15] | GI50 [16] | GI50 [17] | GI50 [18] | GI50 [19] | GI50 [20]
Clc1ccc(-c2nnc(-c3cccc4ccccc34)o2)cc1Cl | > 100 µM (inactive) | > 100 µM (inactive) | > 100 µM (inactive) | > 100 µM (inactive) | > 100 µM (inactive) | > 100 µM (inactive) | > 100 µM (inactive) | 4.93 µM (inactive) | > 100 µM (inactive) | > 100 µM (inactive) | > 100 µM (inactive) | > 100 µM (inactive) | > 100 µM (inactive) | > 100 µM (inactive) | > 100 µM (inactive) | > 100 µM (inactive) | > 100 µM (inactive) | > 100 µM (inactive) | > 100 µM (inactive) | > 100 µM (inactive)
OC(c1cc(-c2ccc(Cl)cc2)nc2ccccc12)C1CCCCN1 (stereo not given) | 1.93 µM (inactive) | 1.84 µM (inactive) | 0.498 µM (active) | 1.74 µM (inactive) | 2.08 µM (inactive) | 1.9 µM (inactive) | 1.99 µM (inactive) | 1.76 µM (inactive) | 1.82 µM (inactive) | 1.95 µM (inactive) | 0.873 µM (active) | 1.27 µM (inactive) | 2.07 µM (inactive) | 2.16 µM (inactive) | 1.97 µM (inactive) | 1.94 µM (inactive) | 2.03 µM (inactive) | 3.3 µM (inactive) | 1.84 µM (inactive) | 2.66 µM (inactive)
O=c1[nH]cnc2cccc(Cl)c12 | > 100 µM (inactive) | > 100 µM (inactive) | > 100 µM (inactive) | > 100 µM (inactive) | > 100 µM (inactive) | > 100 µM (inactive) | > 100 µM (inactive) | > 100 µM (inactive) | > 100 µM (inactive) | > 100 µM (inactive) | > 100 µM (inactive) | > 100 µM (inactive) | > 100 µM (inactive) | > 100 µM (inactive) | > 100 µM (inactive) | > 100 µM (inactive) | > 100 µM (inactive) | > 100 µM (inactive) | > 100 µM (inactive) | > 100 µM (inactive)
O=[N+]([O-])c1cc(F)ccc1Sc1ccccc1 | > 10 µM (inactive) | > 10 µM (inactive) | > 10 µM (inactive) | > 10 µM (inactive) | > 10 µM (inactive) | > 10 µM (inactive) | > 10 µM (inactive) | > 10 µM (inactive) | > 10 µM (inactive) | > 10 µM (inactive) | > 10 µM (inactive) | > 10 µM (inactive) | > 10 µM (inactive) | > 10 µM (inactive) | > 10 µM (inactive) | > 10 µM (inactive) | > 10 µM (inactive) | > 10 µM (inactive) | > 10 µM (inactive) | > 10 µM (inactive)
Cc1nc(-c2ccccc2)c(-c2ccccc2)s1 | 21.4 µM (inactive) | 25.8 µM (inactive) | 16.5 µM (inactive) | 32 µM (inactive) | 12.7 µM (inactive) | 17.9 µM (inactive) | 21.8 µM (inactive) | 18.6 µM (inactive) | 25.3 µM (inactive) | 22.5 µM (inactive) | 21.4 µM (inactive) | 18.6 µM (inactive) | 23.5 µM (inactive) | 27.6 µM (inactive) | 14.2 µM (inactive) | 24.8 µM (inactive) | 16.7 µM (inactive) | 31 µM (inactive) | 15.2 µM (inactive) | 25.1 µM (inactive)
CCc1nc(N)nc(N)c1-c1ccc(N(C)Cc2ccccc2)c([N+](=O)[O-])c1 | 0.0231 µM (active) | < 0.01 µM (active) | 0.0237 µM (active) | 0.215 µM (active) | 0.345 µM (active) | 0.0191 µM (active) | 10.2 µM (inactive) | 0.128 µM (active) | 0.202 µM (active) | 7.67 µM (inactive) | 2.22 µM (inactive) | 1.15 µM (inactive) | 0.697 µM (active) | 8.17 µM (inactive) | 0.0557 µM (active) | 0.0522 µM (active) | 7.74 µM (inactive) | 0.745 µM (active) | 0.0374 µM (active) | 2.58 µM (inactive)
